Experimental data published in ChEMBL document CHEMBL1201862, “PubChem BioAssay data set” (2004).
Active and inactive are the calls of the source.

How the values were obtained:
[1] = intracellular Trypanosoma cruzi inhibitors in host cells – cell-based, plate reader, cherry-pick samples, set 3, dose response (AID 651818); assay type: functional;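 note: compounds incubated with infected cells for about four days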
[2] = target: Glucose-6-phosphate 1-dehydrogenase (Homo sapiens, UniProt P11413); experiment: inhibition of Homo sapiens G6PD, dose series – biochemical, fluorescence, selectivity assay for P. falciparum G6PD inhibitor project, dose response (AID 504792); assay type: functional
Glucose-6-phosphate 1-dehydrogenase, sequence (P11413 whole entry): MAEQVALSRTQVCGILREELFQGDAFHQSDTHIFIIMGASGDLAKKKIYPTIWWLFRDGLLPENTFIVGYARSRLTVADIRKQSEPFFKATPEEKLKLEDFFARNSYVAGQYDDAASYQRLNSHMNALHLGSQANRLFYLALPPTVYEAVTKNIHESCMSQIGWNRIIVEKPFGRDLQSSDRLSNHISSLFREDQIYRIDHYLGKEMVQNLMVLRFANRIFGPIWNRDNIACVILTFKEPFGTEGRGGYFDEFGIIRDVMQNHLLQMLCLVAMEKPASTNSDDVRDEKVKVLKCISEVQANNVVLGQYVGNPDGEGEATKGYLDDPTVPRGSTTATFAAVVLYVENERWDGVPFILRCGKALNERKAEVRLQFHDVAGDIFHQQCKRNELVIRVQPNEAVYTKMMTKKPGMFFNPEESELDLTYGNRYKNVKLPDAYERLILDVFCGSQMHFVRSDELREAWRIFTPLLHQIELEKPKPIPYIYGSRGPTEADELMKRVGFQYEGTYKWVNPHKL

H9c2 = experiment: cells; assay type: functional, cell-based; details: Rattus norvegicus, H9c2, Myocardium;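 note: confirmatory concentration-response retest of ultra-high-throughput screening hits for modulation of myocardial damage; cell death induced by hydrogen peroxide oxidative stress; compound pretreatment for 60 min then peroxide exposure for 2 h; potency is for protecting the cells against peroxide damage rather than for killing them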
[3] = target: T1, Corticotropin-releasing factor receptor 2/Corticotropin-releasing factor-binding protein (Homo sapiens, UniProt P24387+Q13324); experiment: activators of CRF receptor 2 with binding protein – uHTS hits, confirmation (AID 602473); assay type: functional; details: read-out: EC50_Mean
T1 sequence (Q13324 whole entry): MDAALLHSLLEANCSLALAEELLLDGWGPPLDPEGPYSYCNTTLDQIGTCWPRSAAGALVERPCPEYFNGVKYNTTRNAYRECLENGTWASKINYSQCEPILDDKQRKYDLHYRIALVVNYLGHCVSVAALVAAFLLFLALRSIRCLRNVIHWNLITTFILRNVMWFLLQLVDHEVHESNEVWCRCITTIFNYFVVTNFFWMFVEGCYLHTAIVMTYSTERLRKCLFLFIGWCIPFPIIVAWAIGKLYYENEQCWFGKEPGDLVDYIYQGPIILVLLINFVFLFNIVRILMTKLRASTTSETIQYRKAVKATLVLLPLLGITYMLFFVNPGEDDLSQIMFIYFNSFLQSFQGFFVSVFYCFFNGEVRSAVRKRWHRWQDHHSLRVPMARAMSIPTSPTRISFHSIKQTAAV
T1 sequence (P24387 whole entry): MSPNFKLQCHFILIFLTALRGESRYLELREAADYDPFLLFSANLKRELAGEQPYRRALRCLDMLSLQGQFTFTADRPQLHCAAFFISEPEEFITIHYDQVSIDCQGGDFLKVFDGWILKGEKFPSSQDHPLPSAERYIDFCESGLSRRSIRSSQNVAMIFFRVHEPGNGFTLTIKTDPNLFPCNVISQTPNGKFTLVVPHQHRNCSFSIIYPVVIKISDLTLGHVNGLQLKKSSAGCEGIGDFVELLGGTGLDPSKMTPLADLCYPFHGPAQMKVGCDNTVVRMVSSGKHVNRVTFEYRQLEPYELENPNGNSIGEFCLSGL

[4] = target: T1, Corticotropin-releasing factor receptor 2/Corticotropin-releasing factor-binding protein; experiment: Dose Response confirmation of uHTS hits for small molecule antagonists of the CRF-binding protein and CRF-R2 receptor complex.; assay type: functional; details: read-out: IC50_Mean
[5] = Luminescence Cell-Based Dose Retest to Confirm Inhibitors of Cancer Stem Cells. [Related pubchem assays (depositor defined):AID2717, AID2721]; assay type: functional; details: Homo sapiens
[6] = target: DNA dC->dU-editing enzyme APOBEC-3G (Homo sapiens, UniProt Q9HC16); experiment: Dose Response confirmation of small molecule APOBEC3G DNA Deaminase Inhibitors via a fluorescence-based single-stranded DNA deaminase assay. [Related pubchem assays (depositor defined):AID493012, AID493028]; assay type: functional
DNA dC->dU-editing enzyme APOBEC-3G, sequence (Q9HC16 whole entry): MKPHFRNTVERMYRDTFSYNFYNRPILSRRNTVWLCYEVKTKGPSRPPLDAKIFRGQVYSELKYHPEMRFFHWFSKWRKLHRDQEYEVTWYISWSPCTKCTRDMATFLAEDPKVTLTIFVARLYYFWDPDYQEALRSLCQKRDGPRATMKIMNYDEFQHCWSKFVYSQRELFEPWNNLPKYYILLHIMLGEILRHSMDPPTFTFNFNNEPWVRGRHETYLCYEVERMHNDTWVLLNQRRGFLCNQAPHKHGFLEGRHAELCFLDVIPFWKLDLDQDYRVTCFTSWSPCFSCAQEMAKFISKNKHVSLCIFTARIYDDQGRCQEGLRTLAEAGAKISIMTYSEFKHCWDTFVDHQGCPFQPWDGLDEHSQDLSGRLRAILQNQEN

[7] = target: FAD-linked sulfhydryl oxidase ALR (Homo sapiens, UniProt P55789); experiment: ALR-catalysed DTT oxidation blockers – biochemical, H2O2 detection, luminescence, cherry-pick, dose response (AID 493248)
FAD-linked sulfhydryl oxidase ALR, sequence (P55789 whole entry): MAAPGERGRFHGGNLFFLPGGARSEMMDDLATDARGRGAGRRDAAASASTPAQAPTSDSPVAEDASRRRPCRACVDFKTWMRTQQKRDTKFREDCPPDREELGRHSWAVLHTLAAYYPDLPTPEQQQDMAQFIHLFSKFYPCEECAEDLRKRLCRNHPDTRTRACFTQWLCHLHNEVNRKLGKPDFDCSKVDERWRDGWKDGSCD

Cytochrome P450 3A4 = Cytochrome P450 3A4 (Homo sapiens, UniProt P08684);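 note: CYP3A4 tested as one member of a cytochrome P450 panel screen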
[8] = microbe, parasite or virus in culture; assay type: functional; details: Mycobacterium tuberculosis
[9] = target: Peroxisome proliferator-activated receptor gamma/Nuclear receptor coactivator 3 (Homo sapiens, UniProt P37231); experiment: (§1) TR-FRET dose response biochemical High Throughput Screening assay for agonists of the steroid receptor coactivator 3 (SRC-3) recruitment by the peroxisome proliferator-activated receptor gamma (PPAR gamma): non-selective agonists. [Related pubchem assays: 1301 (Confirmation screen.), 1048 (Primary screen.)]; assay type: functional
Peroxisome proliferator-activated receptor gamma/Nuclear receptor coactivator 3, sequence (P37231 whole entry): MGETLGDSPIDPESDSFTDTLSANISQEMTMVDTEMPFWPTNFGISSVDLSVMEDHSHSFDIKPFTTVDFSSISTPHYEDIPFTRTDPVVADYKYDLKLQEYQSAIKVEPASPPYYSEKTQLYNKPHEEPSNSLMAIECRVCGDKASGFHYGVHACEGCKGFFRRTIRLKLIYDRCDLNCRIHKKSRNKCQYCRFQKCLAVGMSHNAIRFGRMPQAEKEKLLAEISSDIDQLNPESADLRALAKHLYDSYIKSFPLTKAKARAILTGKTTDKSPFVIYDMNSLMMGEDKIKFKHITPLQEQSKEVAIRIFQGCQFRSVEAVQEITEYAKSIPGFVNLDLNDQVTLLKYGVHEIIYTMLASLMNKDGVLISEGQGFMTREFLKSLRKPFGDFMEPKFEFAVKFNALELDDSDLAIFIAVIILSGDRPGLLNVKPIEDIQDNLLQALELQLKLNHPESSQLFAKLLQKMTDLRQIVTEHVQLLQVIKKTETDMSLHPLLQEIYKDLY
Peroxisome proliferator-activated receptor gamma/Nuclear receptor coactivator 3, sequence (Q9Y6Q9 whole entry, further chain): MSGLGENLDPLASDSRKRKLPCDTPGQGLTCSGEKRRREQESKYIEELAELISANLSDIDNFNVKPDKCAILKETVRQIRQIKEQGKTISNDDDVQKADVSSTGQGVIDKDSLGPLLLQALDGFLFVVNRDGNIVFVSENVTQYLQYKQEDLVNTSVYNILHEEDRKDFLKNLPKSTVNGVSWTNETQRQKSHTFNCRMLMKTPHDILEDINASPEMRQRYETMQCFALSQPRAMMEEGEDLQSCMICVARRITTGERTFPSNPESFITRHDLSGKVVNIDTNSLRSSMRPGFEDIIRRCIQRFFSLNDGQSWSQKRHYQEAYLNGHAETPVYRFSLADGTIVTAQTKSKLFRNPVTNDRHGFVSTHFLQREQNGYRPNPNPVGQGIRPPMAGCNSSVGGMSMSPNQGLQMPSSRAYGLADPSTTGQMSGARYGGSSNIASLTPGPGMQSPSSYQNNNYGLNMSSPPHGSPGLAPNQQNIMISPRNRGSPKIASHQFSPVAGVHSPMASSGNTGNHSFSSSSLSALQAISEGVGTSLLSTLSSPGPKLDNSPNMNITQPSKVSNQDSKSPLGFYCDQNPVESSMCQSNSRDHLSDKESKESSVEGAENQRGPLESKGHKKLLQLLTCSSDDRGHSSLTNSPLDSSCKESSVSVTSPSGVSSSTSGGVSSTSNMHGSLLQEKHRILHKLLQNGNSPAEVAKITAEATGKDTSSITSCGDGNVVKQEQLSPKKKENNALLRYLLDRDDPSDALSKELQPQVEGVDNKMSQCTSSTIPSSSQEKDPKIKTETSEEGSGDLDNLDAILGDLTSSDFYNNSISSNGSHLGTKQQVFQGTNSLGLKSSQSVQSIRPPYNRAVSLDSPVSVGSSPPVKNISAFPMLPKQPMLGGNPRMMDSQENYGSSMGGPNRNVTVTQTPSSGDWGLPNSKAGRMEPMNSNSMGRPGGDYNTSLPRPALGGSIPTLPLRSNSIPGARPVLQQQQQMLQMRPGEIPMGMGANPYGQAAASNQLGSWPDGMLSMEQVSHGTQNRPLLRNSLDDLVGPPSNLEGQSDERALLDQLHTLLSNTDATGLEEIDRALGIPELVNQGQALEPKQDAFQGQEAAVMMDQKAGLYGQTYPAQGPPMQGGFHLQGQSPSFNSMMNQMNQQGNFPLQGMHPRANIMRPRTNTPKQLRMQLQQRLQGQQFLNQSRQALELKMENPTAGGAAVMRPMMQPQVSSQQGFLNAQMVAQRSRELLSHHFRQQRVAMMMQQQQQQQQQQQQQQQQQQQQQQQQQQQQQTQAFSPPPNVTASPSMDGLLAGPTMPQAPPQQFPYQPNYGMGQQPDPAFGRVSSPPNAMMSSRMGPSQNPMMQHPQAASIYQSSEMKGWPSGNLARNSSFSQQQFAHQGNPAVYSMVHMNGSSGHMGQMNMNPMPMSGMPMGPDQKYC

[10] = target: T2, Rac GTPase-activating protein 1 (Homo sapiens, UniProt Q9H0H5); experiment: blockers of MgcRacGAP-driven Rac1 GTP hydrolysis – biochemical, ADP Hunter fluorescence, primary and confirmatory, confirmation (AID 624330); assay type: functional
T2 sequence (Q9H0H5 whole entry): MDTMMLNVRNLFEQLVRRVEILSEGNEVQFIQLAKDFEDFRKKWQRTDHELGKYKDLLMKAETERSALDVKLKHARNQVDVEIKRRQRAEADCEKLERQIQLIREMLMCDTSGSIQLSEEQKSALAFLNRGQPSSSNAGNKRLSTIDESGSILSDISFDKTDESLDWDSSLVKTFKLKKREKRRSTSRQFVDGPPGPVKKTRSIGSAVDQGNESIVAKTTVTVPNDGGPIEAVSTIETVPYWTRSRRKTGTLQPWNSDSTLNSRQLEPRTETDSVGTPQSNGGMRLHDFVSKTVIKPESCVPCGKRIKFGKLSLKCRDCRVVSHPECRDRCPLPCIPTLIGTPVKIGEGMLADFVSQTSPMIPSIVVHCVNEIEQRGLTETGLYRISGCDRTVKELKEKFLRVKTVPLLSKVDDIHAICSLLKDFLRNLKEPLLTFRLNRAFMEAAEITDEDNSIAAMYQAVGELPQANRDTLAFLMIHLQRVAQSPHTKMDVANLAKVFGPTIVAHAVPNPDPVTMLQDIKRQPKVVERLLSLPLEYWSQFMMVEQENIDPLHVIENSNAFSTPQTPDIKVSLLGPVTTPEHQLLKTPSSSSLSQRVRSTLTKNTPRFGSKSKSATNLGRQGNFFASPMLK

[11] = target: Peroxisome proliferator-activated receptor gamma/Nuclear receptor coactivator 1 (Homo sapiens, UniProt P37231); experiment: as §1, with “1 (SRC-1)” for “3 (SRC-3)”, “assays (depositor defined):AID1300, AID1808, AID504735, AID631]” for “assays: 1301 (Confirmation screen.), 1048 (Primary screen.)]”; assay type: protein assay
[12] = target: Peroxisome proliferator-activated receptor gamma/Nuclear receptor coactivator 2 (Homo sapiens, UniProt P37231); experiment: TR-FRET dose response biochemical High Throughput Screening assay for agonists of the steroid receptor coactivator 2 (SRC-2) recruitment by the peroxisome proliferator-activated receptor gamma (PPAR gamma): non-selective agonists. [Related pubchem assays: 1297, 1032 ]; assay type: functional
Peroxisome proliferator-activated receptor gamma/Nuclear receptor coactivator 2, sequence (P37231 whole entry): as the sequence (P37231 whole entry) above
Peroxisome proliferator-activated receptor gamma/Nuclear receptor coactivator 2, sequence (Q15596 whole entry, further chain): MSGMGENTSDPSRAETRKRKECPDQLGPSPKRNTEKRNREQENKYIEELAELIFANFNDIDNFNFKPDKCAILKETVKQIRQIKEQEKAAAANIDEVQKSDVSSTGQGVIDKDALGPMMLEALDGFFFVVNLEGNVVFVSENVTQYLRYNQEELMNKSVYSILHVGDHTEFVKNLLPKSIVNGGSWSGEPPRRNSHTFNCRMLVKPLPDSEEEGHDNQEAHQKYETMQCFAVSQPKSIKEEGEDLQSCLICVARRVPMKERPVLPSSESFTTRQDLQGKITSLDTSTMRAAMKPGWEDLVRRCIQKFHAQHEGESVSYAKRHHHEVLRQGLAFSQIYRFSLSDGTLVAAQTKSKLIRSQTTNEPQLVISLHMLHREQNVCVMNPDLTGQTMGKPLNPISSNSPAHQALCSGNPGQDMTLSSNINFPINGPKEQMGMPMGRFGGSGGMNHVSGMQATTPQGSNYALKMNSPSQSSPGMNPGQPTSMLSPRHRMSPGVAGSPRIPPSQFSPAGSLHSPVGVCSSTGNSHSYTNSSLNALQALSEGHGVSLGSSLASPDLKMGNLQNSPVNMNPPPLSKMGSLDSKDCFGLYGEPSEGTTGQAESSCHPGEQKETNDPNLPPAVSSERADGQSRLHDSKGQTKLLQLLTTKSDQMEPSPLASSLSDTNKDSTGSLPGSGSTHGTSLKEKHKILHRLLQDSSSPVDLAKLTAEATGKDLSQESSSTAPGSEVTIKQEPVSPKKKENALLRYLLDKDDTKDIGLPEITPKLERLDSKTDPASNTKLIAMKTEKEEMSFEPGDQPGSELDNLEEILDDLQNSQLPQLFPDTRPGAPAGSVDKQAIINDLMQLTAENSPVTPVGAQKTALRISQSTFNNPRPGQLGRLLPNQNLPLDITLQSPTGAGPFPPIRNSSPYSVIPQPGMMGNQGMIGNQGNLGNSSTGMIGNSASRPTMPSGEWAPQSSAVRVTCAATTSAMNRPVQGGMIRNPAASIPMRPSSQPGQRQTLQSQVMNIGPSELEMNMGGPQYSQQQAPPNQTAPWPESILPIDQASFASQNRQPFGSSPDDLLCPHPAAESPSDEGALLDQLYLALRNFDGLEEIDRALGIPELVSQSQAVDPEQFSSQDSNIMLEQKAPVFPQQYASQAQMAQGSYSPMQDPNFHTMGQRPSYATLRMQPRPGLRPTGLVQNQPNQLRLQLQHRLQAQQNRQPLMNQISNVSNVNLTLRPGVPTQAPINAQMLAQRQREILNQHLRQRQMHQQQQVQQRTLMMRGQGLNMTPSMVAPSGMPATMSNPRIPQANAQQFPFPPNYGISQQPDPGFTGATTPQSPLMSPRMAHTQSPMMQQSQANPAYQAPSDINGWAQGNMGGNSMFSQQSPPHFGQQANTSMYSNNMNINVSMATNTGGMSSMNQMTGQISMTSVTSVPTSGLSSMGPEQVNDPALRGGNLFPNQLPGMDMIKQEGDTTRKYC

[13] = DRD fibroblast viability loss – cell-based, non-viral oncogenic, luminescence, dose response (AID 1934); assay type: functional; details: Homo sapiens
BJ [14] = experiment: BJ-TERT fibroblast viability loss – cell-based, RAS-independent, luminescence, dose response (AID 1933); assay type: functional; details: Homo sapiens
BJ [15] = experiment: BJ-TERT-LT-ST fibroblast viability loss – cell-based, RAS-independent, luminescence, dose response (AID 1935); assay type: functional; details: Homo sapiens;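 note: BJ fibroblasts immortalized with TERT plus LT and ST oncogenes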
BJ [16] = experiment: cells; assay type: functional, cell-based; details: Homo sapiens

C[C@H](CO)N1C[C@H](C)[C@H](CN(C)Cc2ccc(C(=O)Nc3ccccc3N)cc2)Oc2ccc(NC(=O)C3CCCCC3)cc2CC1=O
AC50 [1]: 3.41 µM (active)

Nc1nc(O)nc(O)c1N=Cc1ccccc1
IC50 [2]: 63.8 µM (inactive)

CSc1nc2ncc3c(n2n1)CC1c2ccccc2CCN1C3=O (centres undefined)
IC50 (H9c2): 15.1 µM (active)

COc1cc(NC(=O)c2cc([N+](=O)[O-])ccc2NC(=O)CN2CCN(c3ccccn3)CC2)cc(OC)c1
IC50 (H9c2): 10.8 µM (active)

CCN1CCCC1CNC(=O)c1ccc2c(c1)NC(=O)/C(=C\c1ccccc1Cl)S2 (centres undefined)
IC50 [2]: > 80 µM (inactive)

O=C(c1ccccc1)c1nn(-c2ccc(Cl)cc2)cc1C(=O)c1cc2ccccc2oc1=O
EC50 [3]: > 53 µM (inactive) | IC50 [4]: > 47.1 µM (inactive)

Cn1c(=O)c2c(nc(NCCCO)n2C/C=C/c2ccccc2)n(C)c1=O
IC50 (H9c2): > 79 µM (inactive)

CCOC(=O)c1c(NC(=O)COC(=O)c2ccc(O)cc2)sc(C(=O)N(C)C)c1C
IC50 (H9c2): > 79 µM (inactive)

COc1cc(/C=C(\C#N)c2nc3cc(C)ccc3[nH]2)c([N+](=O)[O-])cc1OC
IC50 (H9c2): > 79 µM (inactive)

COc1ccc2sc(-c3ccc(SC)cc3)c(C#CC(C)(C)O)c2c1
AC50 [5]: 2.26 µM (active)

CNc1nnc(S)s1
IC50 [6]: 17.6 µM (active)

C[C@H](CO)N1C[C@H](C)[C@H](CN(C)Cc2ccc(C(=O)Nc3ccccc3N)cc2)Oc2c(NC(=O)Nc3ccc4c(c3)OCO4)cccc2C1=O
AC50 [1]: 5.97 µM (active)

Cc1ccc(S(=O)(=O)NNc2ccccc2)cc1
AC50 [7]: 0.623 µM (active) | AC50 (Cytochrome P450 3A4): 28.2 µM (inconclusive) | IC50 [2]: > 80 µM (inactive)

CCN(CC(=O)NC1CCCCC1)S(=O)(=O)c1ccc(Cl)cc1
AC50 [5]: > 195 µM (inactive)

CCNc1nc(Nc2ccc(C)c(Cl)c2)c2cnn(C)c2n1
CC50 [8]: > 40 µM (active)

CCCCCCn1c(SCC(=O)OC)nc2c1c(=O)[nH]c(=O)n2C
IC50 [6]: 51.6 µM (active)

O=C(CCSCCC(=O)NN=Cc1ccccc1)NN=Cc1ccccc1
IC50 [2]: 55.2 µM (inactive)

Cc1ccc(Cl)cc1-c1ccc(/C=N/c2ccc(N3CCOCC3)cc2)o1
EC50 [9]: > 79.4 µM (not active) | IC50 [10]: 11.2 µM (active) | EC50 [11]: 27.9 µM (inactive) | EC50 [12]: 19.4 µM (not active)

Cc1ccc(NC(=S)N/N=C/c2c(Cl)cccc2Cl)c(C)c1
EC50 [13]: 2.58 µM (active) | EC50 (BJ [14]): 2.66 µM (active) | EC50 (BJ [15]): 3.99 µM (inconclusive) | AC50 [5]: 0.368 µM (active) | EC50 (BJ [16]): 3.48 µM (inconclusive)
